Bounds are passed on as bounds.

For orientation: EC50 means the concentration giving half of the maximal effect.

For series [1], the system named is LASV-p. The experiment in a line: organism not typed. In kind it is cell-based, Lassa (LASV). To be noted: Vero, 24 h, read-out: LASV-p EC50 (nM).
Series [2] deals with MACV-p. The experiment in a line: organism not typed. In kind it is cell-based, Machupo (MACV). To be noted: Vero, 24 h, read-out: MACV-p EC50 (nM).
Series [3] relates to JUNV-p. As to the kind of experiment: organism not typed. It counts as cell-based, Junin (JUNV). To be noted: Vero, 24 h, read-out: JUNV-p EC50 (nM).
Series [4] concerns TCRV-p. As to the kind of experiment: organism not typed. It counts as cell-based. To be noted: Vero, 24 h, read-out: TCRV-p EC50 (nM).
A short description of series [5]: in vitro. The conditions noted are these: African green monkey.

Regarding `COc1ccc(-n2cnc3c(-c4ccc(C(C)C)cc4)cccc32)cc1` [Example A19, 1-(4-methoxyphenyl)-4-[4-(propan-2-yl)phenyl]-1H-1,3-benzodiazole], the EC50 in series [1] is greater than 100 nM.

Regarding `COc1ccc(-n2cnc3ccc(-c4ccc(C#N)cc4)cc32)cc1` [Example A4, 4-[1-(4-methoxyphenyl)-1H-1,3-benzodiazol-6-yl]benzonitrile], the 50% effective concentration (EC50) in series [1], in series [2], in series [3] and in series [4] was greater than 25 nM throughout. In series [5], this compound returned a CC50 of less than 300 nM.

Turning to `CC(C)Oc1ccc(-c2ccc3ccn(-c4ccc(OC(C)C)cc4)c3c2)cc1` [Example D4, 1,6-bis[4-(propan-2-yloxy)phenyl]-1H-indole], the EC50 in series [1] is greater than 25 nM; in series [2] it was 16.9 nM; in series [3], 8.1 nM; in series [4] it was greater than 25 nM.

Regarding `CC(C)Oc1ccc(-c2cnc3ccc(-c4ccc(N)nc4)cn23)cc1` [Example C14, 5-{3-[4-(propan-2-yloxy)phenyl]imidazo[1,2-a]pyridin-6-yl}pyridin-2-amine], the EC50 in series [1], in series [2], in series [3] and in series [4] was greater than 25 nM each time.

For the compound `CC(C)Oc1ccc(-c2ccc3ncc(-c4ccc(C(F)F)cc4)n3c2)cc1` [Example C36, 3-[4-(difluoromethyl)phenyl]-6-[4-(propan-2-yloxy)phenyl]imidazo[1,2-a]pyridine], the EC50 in series [1] was 8.18 nM; in series [2] it was greater than 25 nM; in series [3], 23.2 nM; in series [4] it was greater than 25 nM.

For `COc1ccc(-n2cnc3ccc(Cc4ccc(C)cc4)cc32)cc1` [Example A9, 1-(4-methoxyphenyl)-6-[(4-methylphenyl)methyl]-1H-1,3-benzodiazole], the EC50 in series [1] is greater than 100 nM.

With `COc1ccc(-n2cnc3ccc(-c4ccc(S(C)(=O)=O)cc4)cc32)cc1` [Example A11, 6-(4-methanesulfonylphenyl)-1-(4-methoxyphenyl)-1H-1,3-benzodiazole], the concentration for a half-maximal effect (EC50) in series [1], in series [2], in series [3] and in series [4] was greater than 25 nM each time.

Consider `CC(C)Oc1ccc(-c2ccc3ncc(-c4ccc(OCCN5CCOCC5)cc4)n3c2)cc1` [Example C43, 4-[2-(4-{6-[4-(propan-2-yloxy)phenyl]imidazo[1,2-a]pyridin-3-yl}phenoxy)ethyl]morpholine], for which the EC50 in series [1], in series [2], in series [3] and in series [4] was greater than 25 nM each time.

On to `CC(C)Oc1ccc(-c2cnc3ccc(-c4ccc(C(N)=O)cc4)cn23)cc1` [Example C16, 4-{3-[4-(propan-2-yloxy)phenyl]imidazo[1,2-a]pyridin-6-yl}benzamide], for which the EC50 in series [1], in series [2], in series [3] and in series [4] was greater than 25 nM in each case.

Turning to `CC(=O)c1ccc(-c2cnc3cnc(-c4ccc(OC(C)C)cc4)cn23)cc1` [Example D14, 1-(4-{6-[4-(propan-2-yloxy)phenyl]imidazo[1,2-a]pyrazin-3-yl}phenyl)ethan-1-one], the EC50 was found to be 6.77 nM in series [1], 25 nM in series [2], 13.5 nM in series [3] and 20.2 nM in series [4].

Regarding `CC(C)Oc1ccc(-c2ccc3ncc(-c4ccc(C(=O)O)cc4)n3c2)cc1` [Example C45, 4-{6-[4-(propan-2-yloxy)phenyl]imidazo[1,2-a]pyridin-3-yl}benzoic acid], the EC50 in series [1], in series [2], in series [3] and in series [4] was greater than 25 nM throughout.

Take `CC(C)Oc1ccc(-n2cnc3cnc(-c4ccc(C(C)(C)O)cc4)cc32)cc1` [Example B5, 2-(4-{1-[4-(propan-2-yloxy)phenyl]-1H-imidazo[4,5-c]pyridin-6-yl}phenyl)propan-2-ol]: the EC50 in series [1] was greater than 25 nM; in series [2], greater than 25 nM; in series [3], 13.4 nM; in series [4], greater than 25 nM.

As for `CC(=O)c1ccc(-c2ccc3ncn(-c4ccc5[nH]ccc5c4)c3c2)cc1` [Example A28, 1-{4-[1-(1H-indol-5-yl)-1H-1,3-benzodiazol-6-yl]phenyl}ethan-1-one], the EC50 in series [1] is 11 nM; in series [2] it was greater than 25 nM; in series [3], 7.29 nM; in series [4] it was greater than 25 nM.

For the compound `CC(C)Oc1ccc(-c2coc3ccc(-c4ccc5[nH]ccc5c4)cc23)cc1` [Example D9, 5-{3-[4-(propan-2-yloxy)phenyl]-1-benzofuran-5-yl}-1H-indole], the EC50 in series [1], in series [2], in series [3] and in series [4] was greater than 25 nM each time.

With `CC(C)Oc1ccc(-c2ccc3cnc(-c4ccc(OC(C)C)cc4)n3c2)cc1` [Example D17, 3,6-bis[4-(propan-2-yloxy)phenyl]imidazo[1,5-a]pyridine], the EC50 in series [1], in series [2], in series [3] and in series [4] was greater than 25 nM each time.

Consider `COc1ccc(-n2cnc3c(-c4cccc(C(C)C)c4)cccc32)cc1` [Example A20, 1-(4-methoxyphenyl)-4-[3-(propan-2-yl)phenyl]-1H-1,3-benzodiazole], for which the EC50 in series [1] was greater than 100 nM.

With `CC(C)Oc1ccc(-c2cnc3ccc(-c4ccc(OC(C)C)cc4F)cn23)cc1` [Example C23, 6-[2-fluoro-4-(propan-2-yloxy)phenyl]-3-[4-(propan-2-yloxy)phenyl]imidazo[1,2-a]pyridine], the EC50 in series [1], in series [2], in series [3] and in series [4] was greater than 25 nM in each case.

Consider `CC(=O)c1ccc(-c2cc3c(cn2)ncn3-c2ccc(OC(C)C)cc2)cc1` [Example B8, 1-(4-{1-[4-(propan-2-yloxy)phenyl]-1H-imidazo[4,5-c]pyridin-6-yl}phenyl)ethan-1-one], for which the EC50 in series [1], in series [2], in series [3] and in series [4] was greater than 25 nM in each case.

Consider `CC(C)Oc1ccc(-c2ccc3nc(C(=O)O)c(-c4ccc(OC(C)C)cc4)n3c2)cc1` [Example D21, 3,6-bis[4-(propan-2-yloxy)phenyl]imidazo[1,2-a]pyridine-2-carboxylic acid], for which the EC50 in series [1], in series [2], in series [3] and in series [4] was greater than 25 nM throughout.

On to `COc1cccc(-n2cnc3ccc(-c4ccc(C(C)(C)O)cc4)cc32)c1` [Example A23, 2-{4-[1-(3-methoxyphenyl)-1H-1,3-benzodiazol-6-yl]phenyl}propan-2-ol], for which the EC50 in series [1], in series [2], in series [3] and in series [4] was greater than 25 nM in each case.

As to `c1cc2cc(-c3ccc4ncn(-c5ccc6[nH]ccc6c5)c4c3)ccc2[nH]1` [Example A29, 1,6-bis(1H-indol-5-yl)-1H-1,3-benzodiazole], the concentration for a half-maximal effect (EC50) in series [1] came out at 0.53 nM; in series [2], 11.1 nM; in series [3], 6.96 nM; in series [4], 15.2 nM.

Consider `CCOC(=O)c1nc2ccc(-c3ccc(OC(C)C)cc3)cn2c1-c1ccc(OC(C)C)cc1` [Example D20, ethyl 3,6-bis[4-(propan-2-yloxy)phenyl]imidazo[1,2-a]pyridine-2-carboxylate], for which the EC50 in series [1], in series [2], in series [3] and in series [4] was greater than 25 nM throughout.

For the compound `COc1ccccc1-n1cnc2ccc(-c3ccc(C(C)(C)O)cc3)cc21` [Example A22, 2-{4-[1-(2-methoxyphenyl)-1H-1,3-benzodiazol-6-yl]phenyl}propan-2-ol], the EC50 in series [1], in series [2], in series [3] and in series [4] was greater than 25 nM each time.

Take `CC(C)Oc1ccc(-c2ccc3cnn(-c4ccc(OC(C)C)cc4)c3c2)cc1` [Example D1, 1,6-bis[4-(propan-2-yloxy)phenyl]-1H-indazole]: the EC50 in series [1] is greater than 25 nM; in series [2], greater than 25 nM; in series [3], 14 nM; in series [4] it was greater than 25 nM.

As for `CC(C)Oc1ccc(-c2cnc3ccc(-c4ccc(C5(O)CNC5)cc4)cn23)cc1` [Example C29, 3-(4-{3-[4-(propan-2-yloxy)phenyl]imidazo[1,2-a]pyridin-6-yl}phenyl)azetidin-3-ol], the EC50 in series [1], in series [2], in series [3] and in series [4] was greater than 25 nM throughout.

With `CC(C)Oc1ccc(-c2ccc3ncc(-c4ccc5c(c4)CCO5)n3c2)cc1` [Example C34, 3-(2,3-dihydro-1-benzofuran-5-yl)-6-[4-(propan-2-yloxy)phenyl]imidazo[1,2-a]pyridine], the EC50 in series [1] worked out at 4.73 nM; in series [2], 25.1 nM; in series [3], 3.68 nM; in series [4], 16.5 nM.

Take `CC(C)Oc1ccc(-c2ccc3occ(-c4ccc(OC(C)C)cc4)c3c2)cc1` [Example D8, 3,5-bis[4-(propan-2-yloxy)phenyl]-1-benzofuran]: the EC50 in series [1], in series [2], in series [3] and in series [4] was greater than 25 nM each time.

`CC(C)Oc1ccc(-c2cnc3ccc(-c4ccc(OCCN5CCOCC5)cc4)cn23)cc1` [Example C25, 4-[2-(4-{3-[4-(propan-2-yloxy)phenyl]imidazo[1,2-a]pyridin-6-yl}phenoxy)ethyl]morpholine]: the EC50 is greater than 25 nM in series [1], greater than 25 nM in series [2], no less than 25 nM in series [3] and greater than 25 nM in series [4].

Source of the values: patent US20220281825A1 (priority 2016, published 2022).
